We go through 18 compounds from patent publication US20110281896A1, “OPTICALLY PURE QUINAZOLINE COMPOUNDS” (Jiangsu Hansoh Pharmaceutical Co. Ltd, priority 2009, published 2011).

One may read the IC50 as the midpoint of a concentration-inhibition curve. A higher IC50 goes with weaker potency.

One assay deals with A431. The assay can be described thus: Antitumor activity in vitro, SRB cell proliferation inhibition. Format: cell-based. As to conditions: 72 h incubation, Logit method. On the procedure: (§1) Evaluation of Antitumor Activity In Vitro
(§2) Cell Strains: A431; MCF-7
(§3) Experiment Design: Cells were incubated with different concentrations of compounds for 72 hours. The inhibition of cell proliferation by the compounds was evaluated by SRB, followed by calculation of the inhibition rate. Then, value of IC50 was calculated by using-Logit method base on the inhibition rate and used to compare in vitro antitumor activity of the compounds.
(§4) Method for Calculating the Inhibition Rate: Inhibition rate (%)=(OD value of control group−OD value of drug group)/OD value of control group×100%

The test system of the next assay is MCF-7. The description is as above. Format: cell-based. Conditions: 72 h incubation, Logit method. On the procedure:
as §1, §2, §3, §4

Consider `CCCN[C@@H](CS(C)(=O)=O)c1cnc(-c2ccc3ncnc(Nc4ccc(OCc5cccc(F)c5)c(Cl)c4)c3c2)s1` [Compound 121], for which the results for the IC50 with A431 (A431 cells) and in the assay with MCF-7 (MCF-7 cells) were 465 nM and 6390 nM, respectively.

As to `CN(C)[C@@H](CS(C)(=O)=O)c1cnc(-c2ccc3ncnc(Nc4ccc(OCc5cccc(F)c5)c(Cl)c4)c3c2)s1` [Compound 123], the IC50 with A431 (A431 cells) was 499 nM; with MCF-7 (MCF-7 cells), 6330 nM.

With `CCN(CC)[C@@H](CS(C)(=O)=O)c1cnc(-c2ccc3ncnc(Nc4ccc(OCc5cccc(F)c5)c(Cl)c4)c3c2)s1` [Compound 124], the results for the IC50 in the assay on A431 (A431 cells) and in the assay with MCF-7 (MCF-7 cells) were 685 nM and 7980 nM, respectively.

Consider `CCCN(CCC)[C@@H](CS(C)(=O)=O)c1cnc(-c2ccc3ncnc(Nc4ccc(OCc5cccc(F)c5)c(Cl)c4)c3c2)s1` [Compound 125], for which the IC50 is 523 nM with A431 (A431 cells) and 7760 nM with MCF-7 (MCF-7 cells).

In the case of `CCN(C)[C@@H](CS(C)(=O)=O)c1cnc(-c2ccc3ncnc(Nc4ccc(OCc5cccc(F)c5)c(Cl)c4)c3c2)s1` [Compound 126], the figures for the IC50 in the assay with A431 (A431 cells) and with MCF-7 (MCF-7 cells) were 488 nM and 7760 nM, respectively.

Consider `C=CCN[C@@H](CS(C)(=O)=O)c1cnc(-c2ccc3ncnc(Nc4ccc(OCc5cccc(F)c5)c(Cl)c4)c3c2)s1` [Compound 127], for which the IC50 turned out to be 521 nM in the assay with A431 (A431 cells) and 5890 nM in the assay on MCF-7 (MCF-7 cells).

In the case of `C#CCN[C@@H](CS(C)(=O)=O)c1cnc(-c2ccc3ncnc(Nc4ccc(OCc5cccc(F)c5)c(Cl)c4)c3c2)s1` [Compound 128], the IC50 was 672 nM in the assay with A431 (A431 cells) and 6340 nM in the assay with MCF-7 (MCF-7 cells).

Turning to `CON[C@@H](CS(C)(=O)=O)c1cnc(-c2ccc3ncnc(Nc4ccc(OCc5cccc(F)c5)c(Cl)c4)c3c2)s1` [Compound 129], the IC50 came to 667 nM in the assay with A431 (A431 cells) and 9710 nM in the assay on MCF-7 (MCF-7 cells).

For the compound `CON(C)[C@@H](CS(C)(=O)=O)c1cnc(-c2ccc3ncnc(Nc4ccc(OCc5cccc(F)c5)c(Cl)c4)c3c2)s1` [Compound 130], the results for the IC50 in the assay with A431 (A431 cells) and in the assay on MCF-7 (MCF-7 cells) were 536 nM and 8590 nM, respectively.

In the case of `CS(=O)(=O)C[C@@H](N)c1cnc(-c2ccc3ncnc(Nc4ccc(OCc5cccc(F)c5)c(Cl)c4)c3c2)s1` [Compound 131, (R)—N-(4-(3-fluorobenzyl-oxy)-3-chlorophenyl)-6-(5-(1-(amino)-2-(methylsulfonyl)ethyl)thiazole-2-yl)quinazolin-4-amine], the IC50 in the assay with A431 (Homo sapiens, A-431, A431 cells) came out at 582 nM; with MCF-7 (Homo sapiens, MCF7, MCF-7 cells), 8520 nM.

`CN[C@H](CS(C)(=O)=O)c1cnc(-c2ccc3ncnc(Nc4ccc(OCc5cccc(F)c5)c(Cl)c4)c3c2)s1` [Compound 132]: the values for the IC50 in the assay with A431 (A431 cells) and in the assay on MCF-7 (MCF-7 cells) were 389 nM and 9910 nM, respectively.

For the compound `CCN[C@H](CS(C)(=O)=O)c1cnc(-c2ccc3ncnc(Nc4ccc(OCc5cccc(F)c5)c(Cl)c4)c3c2)s1` [Compound 133], the results for the IC50 with A431 (A431 cells) and in the assay with MCF-7 (MCF-7 cells) were 554 nM and 7890 nM, respectively.

Consider `CCCN[C@H](CS(C)(=O)=O)c1cnc(-c2ccc3ncnc(Nc4ccc(OCc5cccc(F)c5)c(Cl)c4)c3c2)s1` [Compound 134], for which the IC50 with A431 (A431 cells) is 580 nM; in the assay with MCF-7 (MCF-7 cells), 6510 nM.

As to `CN(C)[C@H](CS(C)(=O)=O)c1cnc(-c2ccc3ncnc(Nc4ccc(OCc5cccc(F)c5)c(Cl)c4)c3c2)s1` [Compound 136], the IC50 came to 449 nM with A431 (A431 cells) and 5430 nM in the assay on MCF-7 (MCF-7 cells).

Consider `CCN(CC)[C@H](CS(C)(=O)=O)c1cnc(-c2ccc3ncnc(Nc4ccc(OCc5cccc(F)c5)c(Cl)c4)c3c2)s1` [Compound 137], for which the IC50 was found to be 589 nM with A431 (A431 cells) and 5470 nM in the assay with MCF-7 (MCF-7 cells).

`CCCN(CCC)[C@H](CS(C)(=O)=O)c1cnc(-c2ccc3ncnc(Nc4ccc(OCc5cccc(F)c5)c(Cl)c4)c3c2)s1` [Compound 138]: the IC50 with A431 (A431 cells) was 426 nM; in the assay on MCF-7 (MCF-7 cells), 4600 nM.

Consider `CCN(C)[C@H](CS(C)(=O)=O)c1cnc(-c2ccc3ncnc(Nc4ccc(OCc5cccc(F)c5)c(Cl)c4)c3c2)s1` [Compound 139], for which the IC50 came to 452 nM in the assay on A431 (A431 cells) and 4130 nM in the assay on MCF-7 (MCF-7 cells).

As for `C=CCN[C@H](CS(C)(=O)=O)c1cnc(-c2ccc3ncnc(Nc4ccc(OCc5cccc(F)c5)c(Cl)c4)c3c2)s1` [Compound 140], the IC50 in the assay on A431 (A431 cells) came to 648 nM; in the assay on MCF-7 (MCF-7 cells), 4020 nM.
